Laboratory results as given in PubChem BioAssay AID1259407 (Chemical Carcinogenesis Research Information System (CCRIS), 2018).
Active and inactive are the calls of the source. No rule for the calls is given here.

System: CCRIS mutagenicity, Ames/micronucleus/aberration tests
Assay: CCRIS mutagenicity studies

Oc1ccccc1
mutagenic call (End Point: IN VITRO CHROMOSOMAL ABERRATIONS, Test System: CHO CELLS, Metabolic Activation: NONE): inactive; negative | mutagenic call (End Point: IN VITRO CHROMOSOMAL ABERRATIONS, Test System: CHO CELLS, Metabolic Activation: RAT, LIVER, S-9, AROCLOR 1254): active; positive | mutagenic call (End Point: IN VITRO CHROMOSOMAL ABERRATIONS, Test System: V79 CELLS, Metabolic Activation: NONE): inactive; negative; effect more pronounced at ph 8 but no significant increase | mutagenic call (End Point: IN VITRO MICRONUCLEUS, Test System: CHINESE HAMSTER OVARY (CHO-K5), Metabolic Activation: NONE): active; positive; no statistical analysis was performed | mutagenic call (End Point: IN VITRO MICRONUCLEUS, Test System: CHINESE HAMSTER OVARY (CHO-K5), Metabolic Activation: RAT, LIVER, S-9, PHENOBARBITAL AND BETA-NAPHTHOFLAVONE): active; positive | mutagenic call (End Point: IN VITRO MICRONUCLEUS, Test System: CHL/IU CELLS, Metabolic Activation: RAT, LIVER, S-9, PHENOBARBITAL AND 5,6-BENZOFLAVONE): active; positive | mutagenic call (End Point: IN VITRO MICRONUCLEUS, Test System: CHO CELLS, Metabolic Activation: RAT, LIVER, S-9, AROCLOR 1254): active; positive | mutagenic call (End Point: In vivo micronucleus, Test System: Bone marrow cells, Species: Mouse, Strain/Sex: CD1/Female, Route: Intraperitoneal): active; positive (highest dose only) | mutagenic call (End Point: In vivo micronucleus, Test System: Bone marrow cells, Species: Mouse, Strain/Sex: CD1/Male, Route: Intraperitoneal): active; positive (highest dose only) | mutagenic call (Test System: AMES SALMONELLA TYPHIMURIUM, Strain/Indicator: TA97, Metabolic Activation: NONE, Method: PREINCUBATION): inactive; negative | mutagenic call (Test System: AMES SALMONELLA TYPHIMURIUM, Strain/Indicator: TA97, Metabolic Activation: RAT, LIVER, S-9, AROCLOR 1254, Method: PREINCUBATION): inactive; negative | mutagenic call (Test System: AMES SALMONELLA TYPHIMURIUM, Strain/Indicator: TA98, Metabolic Activation: NONE, Method: FLUCTUATION (MICROTITER)): inactive; negative | mutagenic call (Test System: AMES SALMONELLA TYPHIMURIUM, Strain/Indicator: TA98, Metabolic Activation: NONE, Method: PREINCUBATION): inactive; negative | mutagenic call (Test System: AMES SALMONELLA TYPHIMURIUM, Strain/Indicator: TA98, Metabolic Activation: RAT LIVER S-9, AROCLOR 1254, Method: FLUCTUATION (MICROTITER)): inactive; negative | mutagenic call (Test System: AMES SALMONELLA TYPHIMURIUM, Strain/Indicator: TA98, Metabolic Activation: RAT LIVER S-9, PHENOBARBITAL AND BETA-NAPHTHOFLAVONE, Method: PREINCUBATION): inactive; negative | mutagenic call (Test System: AMES SALMONELLA TYPHIMURIUM, Strain/Indicator: TA98, Metabolic Activation: RAT, LIVER, S-9, AROCLOR 1254, Method: PREINCUBATION): inactive; negative | mutagenic call (Test System: AMES SALMONELLA TYPHIMURIUM, Strain/Indicator: TA98, Metabolic Activation: RAT, LIVER, S-9, AROCLOR 1254, Method: STANDARD PLATE): inactive; negative | mutagenic call (Test System: AMES SALMONELLA TYPHIMURIUM, Strain/Indicator: TA100, Metabolic Activation: NONE, Method: FLUCTUATION TEST): inactive; negative | mutagenic call (Test System: AMES SALMONELLA TYPHIMURIUM, Strain/Indicator: TA100, Metabolic Activation: NONE, Method: PREINCUBATION): inactive; negative | mutagenic call (Test System: AMES SALMONELLA TYPHIMURIUM, Strain/Indicator: TA100, Metabolic Activation: RAT LIVER S-9, PHENOBARBITAL AND BETA-NAPHTHOFLAVONE, Method: PREINCUBATION): inactive; negative | mutagenic call (Test System: AMES SALMONELLA TYPHIMURIUM, Strain/Indicator: TA100, Metabolic Activation: RAT, LIVER, S-9, AROCLOR 1254, Method: PREINCUBATION): inactive; negative | mutagenic call (Test System: AMES SALMONELLA TYPHIMURIUM, Strain/Indicator: TA100, Metabolic Activation: RAT, LIVER, S-9, PCB, Method: FLUCTUATION TEST): active; positive | mutagenic call (Test System: AMES SALMONELLA TYPHIMURIUM, Strain/Indicator: TA102, Metabolic Activation: NONE, Method: PREINCUBATION): inactive; negative | mutagenic call (Test System: AMES SALMONELLA TYPHIMURIUM, Strain/Indicator: TA102, Metabolic Activation: RAT, LIVER, S-9, AROCLOR 1254, Method: PREINCUBATION): inactive; negative | mutagenic call (Test System: AMES SALMONELLA TYPHIMURIUM, Strain/Indicator: TA104, Metabolic Activation: NONE, Method: PREINCUBATION): inactive; negative | mutagenic call (Test System: AMES SALMONELLA TYPHIMURIUM, Strain/Indicator: TA104, Metabolic Activation: RAT, LIVER, S-9, AROCLOR 1254, Method: PREINCUBATION): inactive; negative | mutagenic call (Test System: AMES SALMONELLA TYPHIMURIUM, Strain/Indicator: TA1535, Metabolic Activation: NONE, Method: PREINCUBATION): inactive; negative | mutagenic call (Test System: AMES SALMONELLA TYPHIMURIUM, Strain/Indicator: TA1535, Metabolic Activation: RAT LIVER S-9, PHENOBARBITAL AND BETA-NAPHTHOFLAVONE, Method: PREINCUBATION): inactive; negative | mutagenic call (Test System: AMES SALMONELLA TYPHIMURIUM, Strain/Indicator: TA1535, Metabolic Activation: RAT, LIVER, S-9, AROCLOR 1254, Method: PREINCUBATION): inactive; negative | mutagenic call (Test System: AMES SALMONELLA TYPHIMURIUM, Strain/Indicator: TA1535, Metabolic Activation: RAT, LIVER, S-9, AROCLOR 1254, Method: STANDARD PLATE): inactive; negative | mutagenic call (Test System: AMES SALMONELLA TYPHIMURIUM, Strain/Indicator: TA1537, Metabolic Activation: NONE, Method: FLUCTUATION (MICROTITER)): inactive; negative | mutagenic call (Test System: AMES SALMONELLA TYPHIMURIUM, Strain/Indicator: TA1537, Metabolic Activation: NONE, Method: PREINCUBATION): inactive; negative | mutagenic call (Test System: AMES SALMONELLA TYPHIMURIUM, Strain/Indicator: TA1537, Metabolic Activation: RAT LIVER S-9, AROCLOR 1254, Method: FLUCTUATION (MICROTITER)): inactive; negative | mutagenic call (Test System: AMES SALMONELLA TYPHIMURIUM, Strain/Indicator: TA1537, Metabolic Activation: RAT LIVER S-9, PHENOBARBITAL AND BETA-NAPHTHOFLAVONE, Method: PREINCUBATION): inactive; negative | mutagenic call (Test System: AMES SALMONELLA TYPHIMURIUM, Strain/Indicator: TA7001, Metabolic Activation: NONE, Method: FLUCTUATION (MICROTITER)): inactive; negative | mutagenic call (Test System: AMES SALMONELLA TYPHIMURIUM, Strain/Indicator: TA7001, Metabolic Activation: RAT LIVER S-9, AROCLOR 1254, Method: FLUCTUATION (MICROTITER)): inactive; negative | mutagenic call (Test System: AMES SALMONELLA TYPHIMURIUM, Strain/Indicator: TA7002, Metabolic Activation: NONE, Method: FLUCTUATION (MICROTITER)): inactive; negative | mutagenic call (Test System: AMES SALMONELLA TYPHIMURIUM, Strain/Indicator: TA7002, Metabolic Activation: RAT LIVER S-9, AROCLOR 1254, Method: FLUCTUATION (MICROTITER)): inactive; negative | mutagenic call (Test System: AMES SALMONELLA TYPHIMURIUM, Strain/Indicator: TA7003, Metabolic Activation: NONE, Method: FLUCTUATION (MICROTITER)): inactive; negative | mutagenic call (Test System: AMES SALMONELLA TYPHIMURIUM, Strain/Indicator: TA7003, Metabolic Activation: RAT LIVER S-9, AROCLOR 1254, Method: FLUCTUATION (MICROTITER)): inactive; negative | mutagenic call (Test System: AMES SALMONELLA TYPHIMURIUM, Strain/Indicator: TA7004, Metabolic Activation: NONE, Method: FLUCTUATION (MICROTITER)): inactive; negative | mutagenic call (Test System: AMES SALMONELLA TYPHIMURIUM, Strain/Indicator: TA7004, Metabolic Activation: RAT LIVER S-9, AROCLOR 1254, Method: FLUCTUATION (MICROTITER)): inactive; negative | mutagenic call (Test System: AMES SALMONELLA TYPHIMURIUM, Strain/Indicator: TA7005, Metabolic Activation: NONE, Method: FLUCTUATION (MICROTITER)): inactive; negative | mutagenic call (Test System: AMES SALMONELLA TYPHIMURIUM, Strain/Indicator: TA7005, Metabolic Activation: RAT LIVER S-9, AROCLOR 1254, Method: FLUCTUATION (MICROTITER)): inactive; negative | mutagenic call (Test System: AMES SALMONELLA TYPHIMURIUM, Strain/Indicator: TA7006, Metabolic Activation: NONE, Method: FLUCTUATION (MICROTITER)): inactive; negative | mutagenic call (Test System: AMES SALMONELLA TYPHIMURIUM, Strain/Indicator: TA7006, Metabolic Activation: RAT LIVER S-9, AROCLOR 1254, Method: FLUCTUATION (MICROTITER)): inactive; negative | mutagenic call (Test System: CHINESE HAMSTER V-79, Strain/Indicator: V-79/6-THIOGUANINE, Metabolic Activation: NONE): inactive; negative | mutagenic call (Test System: E.COLI, Strain/Indicator: WP2UVRA, Metabolic Activation: NONE, Method: PREINCUBATION): inactive; negative | mutagenic call (Test System: E.COLI, Strain/Indicator: WP2UVRA, Metabolic Activation: RAT LIVER S-9, PHENOBARBITAL AND BETA-NAPHTHOFLAVONE, Method: PREINCUBATION): inactive; negative | mutagenic call (Test System: MOUSE LYMPHOMA, Strain/Indicator: L5178Y (TK+/TK-), Metabolic Activation: NONE, Method: SUSPENSION/PLATE): active; positive | mutagenic call (Test System: MOUSE LYMPHOMA, Strain/Indicator: L5178Y (TK+/TK-), Metabolic Activation: RAT, LIVER, S-9, AROCLOR 1254, Method: SUSPENSION/PLATE): active; positive | mutagenic call (Test System: UDS SHE CELLS, Strain/Indicator: THY INCORP, Metabolic Activation: NONE, Method: LIQUID SCINTILLATION COUNTING): active; positive
